Laboratory results taken from the NIST ThermoML archive (doi:10.1021/je200721d).

Assay: xn = mol fraction of the nth substance listed
Details: Liquid, Vibrating tube method

CCCCCCCCCC [decane] + CCCCCC
Details | mass density [kg/m3]
323.14 K, 13000 kPa, x2 = 0.2185 | 707.88
323.14 K, 13000 kPa, x2 = 0.4968 | 691.97
323.14 K, 14000 kPa, x2 = 0.0456 | 717.02
323.14 K, 14000 kPa, x2 = 0.2185 | 708.71
323.14 K, 14000 kPa, x2 = 0.4968 | 692.85
323.14 K, 15000 kPa, x2 = 0.0456 | 717.82
323.14 K, 15000 kPa, x2 = 0.2185 | 709.54
323.14 K, 15000 kPa, x2 = 0.4968 | 693.71
323.14 K, 16000 kPa, x2 = 0.0456 | 718.6
323.14 K, 16000 kPa, x2 = 0.2185 | 710.33
323.14 K, 16000 kPa, x2 = 0.4968 | 694.57
323.14 K, 17000 kPa, x2 = 0.0456 | 719.38
323.14 K, 17000 kPa, x2 = 0.2185 | 711.14
323.14 K, 17000 kPa, x2 = 0.4968 | 695.4
323.14 K, 18000 kPa, x2 = 0.0456 | 720.14
323.14 K, 18000 kPa, x2 = 0.2185 | 711.93
323.14 K, 18000 kPa, x2 = 0.4968 | 696.25
323.14 K, 19000 kPa, x2 = 0.0456 | 720.9
323.14 K, 19000 kPa, x2 = 0.2185 | 712.7
323.14 K, 19000 kPa, x2 = 0.4968 | 697.05
323.14 K, 20000 kPa, x2 = 0.0456 | 721.64
323.14 K, 20000 kPa, x2 = 0.2185 | 713.47
323.14 K, 20000 kPa, x2 = 0.4968 | 697.87
323.14 K, 21000 kPa, x2 = 0.0456 | 722.37
323.14 K, 21000 kPa, x2 = 0.2185 | 714.23
323.14 K, 21000 kPa, x2 = 0.4968 | 698.66
323.14 K, 22000 kPa, x2 = 0.0456 | 723.1
323.14 K, 22000 kPa, x2 = 0.2185 | 714.97
323.14 K, 22000 kPa, x2 = 0.4968 | 699.42
323.14 K, 23000 kPa, x2 = 0.0456 | 723.81
323.14 K, 23000 kPa, x2 = 0.2185 | 715.7
323.14 K, 23000 kPa, x2 = 0.4968 | 700.17
323.14 K, 24000 kPa, x2 = 0.0456 | 724.52
323.14 K, 24000 kPa, x2 = 0.2185 | 716.43
323.14 K, 24000 kPa, x2 = 0.4968 | 700.91
323.14 K, 25000 kPa, x2 = 0.0456 | 725.21
323.14 K, 25000 kPa, x2 = 0.2185 | 717.13
323.14 K, 25000 kPa, x2 = 0.4968 | 701.65
323.16 K, 1000 kPa, x2 = 0.7524 | 659.51
323.16 K, 2000 kPa, x2 = 0.7524 | 660.73
323.16 K, 3000 kPa, x2 = 0.7524 | 661.92
323.16 K, 4000 kPa, x2 = 0.7524 | 663.04
323.16 K, 5000 kPa, x2 = 0.7524 | 664.17
323.16 K, 6000 kPa, x2 = 0.7524 | 665.29
323.16 K, 7000 kPa, x2 = 0.7524 | 666.38
323.16 K, 8000 kPa, x2 = 0.7524 | 667.43
323.16 K, 9000 kPa, x2 = 0.7524 | 668.5
323.16 K, 10000 kPa, x2 = 0.7524 | 669.53
323.16 K, 10990 kPa, x2 = 0.7524 | 670.57
323.16 K, 12000 kPa, x2 = 0.7524 | 671.56
323.16 K, 13000 kPa, x2 = 0.7524 | 672.52
323.16 K, 14000 kPa, x2 = 0.7524 | 673.49
323.16 K, 15000 kPa, x2 = 0.7524 | 674.44
323.16 K, 16000 kPa, x2 = 0.7524 | 675.39
323.16 K, 17000 kPa, x2 = 0.7524 | 676.32
323.16 K, 18000 kPa, x2 = 0.7524 | 677.22
323.16 K, 19000 kPa, x2 = 0.7524 | 678.11
323.16 K, 20000 kPa, x2 = 0.7524 | 678.99
323.16 K, 21000 kPa, x2 = 0.7524 | 679.85
323.16 K, 22000 kPa, x2 = 0.7524 | 680.67
323.16 K, 23000 kPa, x2 = 0.7524 | 681.51
323.16 K, 24000 kPa, x2 = 0.7524 | 682.33
323.16 K, 25000 kPa, x2 = 0.7524 | 683.11
332.58 K, 1000 kPa, x2 = 0.4968 | 671.98
332.58 K, 2000 kPa, x2 = 0.4968 | 673.11
332.58 K, 3000 kPa, x2 = 0.4968 | 674.24
332.58 K, 4000 kPa, x2 = 0.4968 | 675.37
332.58 K, 5000 kPa, x2 = 0.4968 | 676.46
332.58 K, 6000 kPa, x2 = 0.4968 | 677.53
332.58 K, 7000 kPa, x2 = 0.4968 | 678.61
332.58 K, 8000 kPa, x2 = 0.4968 | 679.66
332.58 K, 9000 kPa, x2 = 0.4968 | 680.68
332.58 K, 10000 kPa, x2 = 0.4968 | 681.7
332.58 K, 10990 kPa, x2 = 0.4968 | 682.69
332.58 K, 12000 kPa, x2 = 0.4968 | 683.66
332.58 K, 13000 kPa, x2 = 0.4968 | 684.64
332.58 K, 14000 kPa, x2 = 0.4968 | 685.59
332.58 K, 15000 kPa, x2 = 0.4968 | 686.54
332.58 K, 16000 kPa, x2 = 0.4968 | 687.44
332.58 K, 17000 kPa, x2 = 0.4968 | 688.35
332.58 K, 18000 kPa, x2 = 0.4968 | 689.24
332.58 K, 19000 kPa, x2 = 0.4968 | 690.12
332.58 K, 20000 kPa, x2 = 0.4968 | 690.99
332.58 K, 21000 kPa, x2 = 0.4968 | 691.85
332.58 K, 22000 kPa, x2 = 0.4968 | 692.69
332.58 K, 23000 kPa, x2 = 0.4968 | 693.52
332.58 K, 24000 kPa, x2 = 0.4968 | 694.34
332.58 K, 25000 kPa, x2 = 0.4968 | 695.13
332.93 K, 1000 kPa, x2 = 0.8991 | 636.12
332.93 K, 2000 kPa, x2 = 0.8991 | 637.35
332.93 K, 3000 kPa, x2 = 0.8991 | 638.61
332.93 K, 4000 kPa, x2 = 0.8991 | 639.84
332.93 K, 5000 kPa, x2 = 0.8991 | 641.09
332.93 K, 6000 kPa, x2 = 0.8991 | 642.3
